# Data taken from PMC9963013 (Proceedings of the National Academy of Sciences of the …, 2023).
# Target: AtSFH5-Sec14 (Arabidopsis thaliana, UniProt Q8GXC6)
# Test: X-ray crystal structure, […] Å
# Format: binding
# Details: central cavity; acyl chains switched relative to L-α-PA complex
# Sequence of AtSFH5-Sec14 (Q8GXC6 76-365): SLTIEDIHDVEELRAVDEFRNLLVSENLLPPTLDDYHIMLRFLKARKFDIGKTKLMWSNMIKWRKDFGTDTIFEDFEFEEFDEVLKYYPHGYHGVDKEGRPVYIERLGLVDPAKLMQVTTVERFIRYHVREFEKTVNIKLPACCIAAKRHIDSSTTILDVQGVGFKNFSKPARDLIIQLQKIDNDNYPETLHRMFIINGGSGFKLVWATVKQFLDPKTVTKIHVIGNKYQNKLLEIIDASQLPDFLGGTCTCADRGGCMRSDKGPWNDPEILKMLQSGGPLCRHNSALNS
compound,measurement,value
"CCCCCCCCCCCCCCCC(=O)OC[C@H](COP(=O)(O)O)OC(=O)CCCCCCCCCCCCCCC [DPPA, 1,2-dipalmitoyl-sn-glycero-3-phosphate]","X-ray crystal structure, 2.1 Å",7Y10 for AtSFH5-Sec14 in complex with DPPA
